Results as given in the NIST ThermoML archive (doi:10.1016/j.fluid.2018.10.024).

How the values were obtained:
[1] = refractive index (Na D-line) (dimensionless); xn = mol fraction of the nth substance listed; settings: 101 kPa, Liquid, Standard Abbe refractometry
[2] = xn = mol fraction of the nth substance listed; settings: 101 kPa, Liquid; for viscosity: Capillary tube (Ostwald / Ubbelohde) method; for mass density: Vibrating tube method

ClC(Cl)Cl [trichloromethane] + CO
Settings | mass density, [2] [kg/m3] | refractive index, [1] | viscosity, [2] [mPa·s]
298.15 K, x2 = 0 | 1478.75 | 1.4422 | 0.5916
298.15 K, x2 = 0.0999 | 1443.84 | 1.4379 | 0.6213
298.15 K, x2 = 0.2012 | 1403.84 | 1.4312 | 0.6437
298.15 K, x2 = 0.3015 | 1358.87 | 1.4217 | 0.6585
298.15 K, x2 = 0.3991 | 1309.46 | 1.4115 | 0.6642
298.15 K, x2 = 0.502 | 1250.29 | 1.4018 | 0.6635
298.15 K, x2 = 0.5998 | 1186.04 | 1.3903 | 0.6552
298.15 K, x2 = 0.7012 | 1108.93 | 1.3789 | 0.6385
298.15 K, x2 = 0.7998 | 1020.91 | 1.3649 | 0.6182
298.15 K, x2 = 0.9001 | 914.54 | 1.3485 | 0.5812
303.15 K, x2 = 0 | 1469.16 | 1.4397 | 0.558
303.15 K, x2 = 0.0999 | 1434 | 1.4327 | 0.5797
303.15 K, x2 = 0.2012 | 1394.48 | 1.4257 | 0.5937
303.15 K, x2 = 0.3015 | 1350.17 | 1.4171 | 0.6053
303.15 K, x2 = 0.3991 | 1301.28 | 1.4084 | 0.6038
303.15 K, x2 = 0.502 | 1242.63 | 1.3979 | 0.6028
303.15 K, x2 = 0.5998 | 1178.79 | 1.3881 | 0.5919
303.15 K, x2 = 0.7012 | 1102.19 | 1.377 | 0.5796
303.15 K, x2 = 0.7998 | 1014.72 | 1.3633 | 0.5571
303.15 K, x2 = 0.9001 | 909 | 1.3467 | 0.533
308.15 K, x2 = 0 | 1460.01 | 1.4356 | 0.5333
308.15 K, x2 = 0.0999 | 1424.97 | 1.4289 | 0.5525
308.15 K, x2 = 0.2012 | 1385.67 | 1.4212 | 0.5656
308.15 K, x2 = 0.3015 | 1341.86 | 1.4116 | 0.5743
308.15 K, x2 = 0.3991 | 1293.54 | 1.4031 | 0.5766
308.15 K, x2 = 0.502 | 1235.37 | 1.3953 | 0.5716
308.15 K, x2 = 0.5998 | 1171.85 | 1.3856 | 0.5627
308.15 K, x2 = 0.7012 | 1095.59 | 1.3729 | 0.5487
308.15 K, x2 = 0.7998 | 1008.7 | – | 0.5267
308.15 K, x2 = 0.9001 | 903.73 | 1.3443 | 0.5044
313.15 K, x2 = 0 | 1450.39 | 1.4338 | 0.5072
313.15 K, x2 = 0.0999 | 1415.61 | 1.427 | 0.5241
313.15 K, x2 = 0.2012 | 1376.61 | 1.4211 | 0.5355
313.15 K, x2 = 0.3015 | 1333.14 | 1.4127 | 0.5429
313.15 K, x2 = 0.3991 | 1285.19 | 1.4049 | 0.5434
313.15 K, x2 = 0.502 | 1227.45 | 1.3943 | 0.5403
313.15 K, x2 = 0.5998 | 1164.4 | 1.3839 | 0.5264
313.15 K, x2 = 0.7012 | 1088.7 | 1.3722 | 0.5134
313.15 K, x2 = 0.7998 | 1002.44 | 1.3592 | 0.4924
313.15 K, x2 = 0.9001 | 898.23 | – | 0.4713
318.15 K, x2 = 0 | 1440.03 | 1.4297 | 0.4849
318.15 K, x2 = 0.0999 | 1405.51 | 1.4201 | 0.4991
318.15 K, x2 = 0.2012 | 1366.88 | 1.4174 | 0.5108
318.15 K, x2 = 0.3015 | 1323.78 | 1.4093 | 0.5144
318.15 K, x2 = 0.3991 | 1276.2 | 1.4023 | 0.5142
318.15 K, x2 = 0.502 | 1218.91 | 1.3927 | 0.5108
318.15 K, x2 = 0.5998 | 1156.37 | 1.3817 | 0.4976
318.15 K, x2 = 0.7012 | 1081.29 | 1.3719 | 0.483
318.15 K, x2 = 0.7998 | 995.73 | 1.3576 | 0.4655
318.15 K, x2 = 0.9001 | 892.36 | 1.3406 | 0.4426

CC(C)=O [acetone] + CO
Settings | mass density, [2] [kg/m3] | refractive index, [1] | viscosity, [2] [mPa·s]
298.15 K, x2 = 0 | 784.41 | 1.3558 | 0.3034
298.15 K, x2 = 0.1036 | 786.21 | 1.3539 | 0.3003
298.15 K, x2 = 0.2043 | 787.49 | 1.3521 | 0.3006
298.15 K, x2 = 0.302 | 788.57 | 1.3502 | 0.3059
298.15 K, x2 = 0.4013 | 789.53 | 1.3483 | 0.3143
298.15 K, x2 = 0.5004 | 790.3 | 1.3458 | 0.3299
298.15 K, x2 = 0.6006 | 790.81 | 1.3426 | 0.3533
298.15 K, x2 = 0.6969 | 790.98 | 1.3389 | 0.3852
298.15 K, x2 = 0.802 | 790.73 | 1.3352 | 0.4316
298.15 K, x2 = 0.8965 | 789.83 | 1.3315 | 0.4833
303.15 K, x2 = 0 | 778.66 | 1.3534 | 0.2966
303.15 K, x2 = 0.1036 | 780.47 | 1.3513 | 0.295
303.15 K, x2 = 0.2043 | 781.81 | 1.3497 | 0.2939
303.15 K, x2 = 0.302 | 782.95 | 1.3482 | 0.2987
303.15 K, x2 = 0.4013 | 784 | 1.3464 | 0.3073
303.15 K, x2 = 0.5004 | 784.89 | 1.3439 | 0.3188
303.15 K, x2 = 0.6006 | 785.55 | 1.3407 | 0.34
303.15 K, x2 = 0.6969 | 785.85 | 1.3369 | 0.3663
303.15 K, x2 = 0.802 | 785.67 | 1.3328 | 0.4051
303.15 K, x2 = 0.8965 | 784.85 | 1.3291 | 0.4472
308.15 K, x2 = 0 | 773.08 | 1.3509 | 0.2831
308.15 K, x2 = 0.1036 | 774.93 | 1.3493 | 0.2807
308.15 K, x2 = 0.2043 | 776.27 | 1.3481 | 0.2803
308.15 K, x2 = 0.302 | 777.4 | 1.3465 | 0.2844
308.15 K, x2 = 0.4013 | 778.45 | 1.3444 | 0.2945
308.15 K, x2 = 0.5004 | 779.36 | 1.3419 | 0.3103
308.15 K, x2 = 0.6006 | 780.05 | 1.3385 | 0.3255
308.15 K, x2 = 0.6969 | 780.38 | 1.3349 | 0.3531
308.15 K, x2 = 0.802 | 780.24 | 1.3309 | 0.3857
308.15 K, x2 = 0.8965 | 779.53 | 1.3269 | 0.4278
313.15 K, x2 = 0 | 766.95 | 1.349 | 0.2689
313.15 K, x2 = 0.1036 | 768.83 | 1.3469 | 0.2647
313.15 K, x2 = 0.2043 | 770.26 | 1.3457 | 0.2657
313.15 K, x2 = 0.302 | 771.49 | 1.3435 | 0.2704
313.15 K, x2 = 0.4013 | 772.65 | 1.3415 | 0.2769
313.15 K, x2 = 0.5004 | 773.67 | 1.3392 | 0.2881
313.15 K, x2 = 0.6006 | 774.49 | 1.3362 | 0.3057
313.15 K, x2 = 0.6969 | 775.01 | 1.3329 | 0.3316
313.15 K, x2 = 0.802 | 775.12 | 1.3289 | 0.3619
313.15 K, x2 = 0.8965 | 774.65 | 1.3253 | 0.3989
318.15 K, x2 = 0 | 761.26 | 1.3449 | 0.2511
318.15 K, x2 = 0.1036 | 763.15 | 1.3432 | 0.2478
318.15 K, x2 = 0.2043 | 764.64 | 1.3414 | 0.2494
318.15 K, x2 = 0.302 | 765.92 | 1.3397 | 0.2526
318.15 K, x2 = 0.4013 | 767.11 | 1.3381 | 0.2601
318.15 K, x2 = 0.5004 | 768.17 | 1.3361 | 0.2692
318.15 K, x2 = 0.6006 | 769.04 | 1.3334 | 0.2903
318.15 K, x2 = 0.6969 | 769.62 | 1.3303 | 0.3096
318.15 K, x2 = 0.802 | 769.88 | 1.3262 | 0.3377
318.15 K, x2 = 0.8965 | 769.53 | 1.3221 | 0.375
